From PMC4581874 (PLoS ONE, 2015)
“Also recorded” adds a separate entry of the source.

Columns and labels:
HCC827 cells = assay: HCC827 cell viability assay; assay type: cell-based; conditions: Homo sapiens, 72 h, read-out: HCC827 IC50 (anti-proliferative activity)
Protocol: HCC827 cells were purchased from the American Type Culture Collection (ATCC, Manassas, VA, USA). […] Human umbilical vein endothelial cells (HUVECs, ScienCell Research Laboratories, Carlsbad, CA, USA) were cultured in endothelial growth medium-2 (EGM-2; Lonza, Walkersville, MD, USA) from passages 3 to 6.
After a 24-hour incubation, the cells were treated with a series of test compound dilutions for 72 hours. Cell viability was assessed using EZ-Cytox (Daeil Lab Service, Seoul, South Korea) according to the manufacturer’s instructions.
Cells were incubated for 72 h with a range of concentrations of MKP101, and cell viability was measured using the WST-1 assay. […] Western blot analysis using antibodies to phosphorylated and total EGFR from a representative experiment is shown. Cells were incubated for 3 h at the indicated concentration. (C) Graph showing the relative intensities of the total and phosphorylated EGFR as determined by band densitometry. IC50, half-maximal inhibitory concentration.

EGFR = EGFR (Homo sapiens, UniProt P00533); assay: In vitro kinase assay, EGFR; assay type: biochemical; conditions: for inhibition at 1 µM: mean ± S.D., read-out: % inhibition at 1 μM, EGFR(h); for IC50: in vitro kinase assay, mean values
Protocol: All kinase assays were carried out using KinaseProfiler^TM and IC50 Profiler^TM (Millipore UK Ltd., Dundee, UK. Now Eurofins Scientific, Dundee, UK). All IC50 data were presented as the mean values.

VEGFR-2 = biological target: T1, VEGFR-2 (Homo sapiens, UniProt P35968); assay: In vitro kinase assay, VEGFR-2; assay type: biochemical; conditions: for IC50: in vitro kinase assay; for inhibition at 1 µM: mean ± S.D., read-out: % inhibition at 1 μM, VEGFR-2 (h)
T1 construct: purchased Millipore UK Ltd., Dundee, UK (now Eurofins Scientific); KinaseProfiler / IC50 Profiler service
Protocol: (§1) All kinase assays were carried out using KinaseProfiler^TM and IC50 Profiler^TM (Millipore UK Ltd., Dundee, UK. Now Eurofins Scientific, Dundee, UK). All IC50 data were presented as the mean values. The Curves obtained to determine IC50 values were shown in Supporting Information (S1 Fig).

FGFR3 = biological target: T2, FGFR3 (Homo sapiens, UniProt P22607); assay: In vitro kinase assay, FGFR3; assay type: biochemical; conditions: 1 μM, mean ± S.D.; read-out: % inhibition at 1 μM, FGFR3 (h)
T2 construct: purchased Millipore UK Ltd., Dundee, UK (now Eurofins Scientific); KinaseProfiler / IC50 Profiler service
Protocol: as §1

EGFR (L858R) = biological target: T3, EGFR (L858R) (Homo sapiens, UniProt P00533, L858R); assay: In vitro kinase assay, EGFR (L858R); assay type: biochemical; conditions: 1 μM, mean ± S.D.; read-out: % inhibition at 1 μM, EGFR(L858R)(h)
T3 construct: purchased Millipore UK Ltd., Dundee, UK (now Eurofins Scientific); KinaseProfiler / IC50 Profiler service
Protocol: as §1

VEGFR-3 = biological target: T4, VEGFR-3 (Homo sapiens, UniProt P35916); assay: In vitro kinase assay, VEGFR-3; assay type: biochemical; conditions: 1 μM, mean ± S.D.; read-out: % inhibition at 1 μM, VEGFR-3 (h)
T4 construct: purchased Millipore UK Ltd., Dundee, UK (now Eurofins Scientific); KinaseProfiler / IC50 Profiler service
Protocol: as §1

PDGFRα = biological target: T5, PDGFRα (Homo sapiens, UniProt P16234); assay: In vitro kinase assay, PDGFRα; assay type: biochemical; conditions: 1 μM, mean ± S.D.; read-out: % inhibition at 1 μM, PDGFRα (h)
T5 construct: purchased Millipore UK Ltd., Dundee, UK (now Eurofins Scientific); KinaseProfiler / IC50 Profiler service
Protocol: as §1

VEGFR-1 = biological target: T6, VEGFR-1 (Homo sapiens, UniProt P17948); assay: In vitro kinase assay, VEGFR-1; assay type: biochemical; conditions: 1 μM, mean ± S.D.; read-out: % inhibition at 1 μM, VEGFR-1 (h)
T6 construct: purchased Millipore UK Ltd., Dundee, UK (now Eurofins Scientific); KinaseProfiler / IC50 Profiler service
Protocol: as §1

FGFR1 = biological target: T7, FGFR1 (Homo sapiens, UniProt P11362); assay: In vitro kinase assay, FGFR1; assay type: biochemical; conditions: 1 μM, mean ± S.D.; read-out: % inhibition at 1 μM, FGFR1 (h)
T7 construct: purchased Millipore UK Ltd., Dundee, UK (now Eurofins Scientific); KinaseProfiler / IC50 Profiler service
Protocol: as §1

cKit = biological target: T8, cKit (Homo sapiens, UniProt P10721); assay: In vitro kinase assay, cKit; assay type: biochemical; conditions: 1 μM, mean ± S.D.; read-out: % inhibition at 1 μM, cKit(h)
T8 construct: purchased Millipore UK Ltd., Dundee, UK (now Eurofins Scientific); KinaseProfiler / IC50 Profiler service
Protocol: as §1

PDGFRβ = biological target: T9, PDGFRβ (Homo sapiens, UniProt P09619); assay: In vitro kinase assay, PDGFRβ; assay type: biochemical; conditions: 1 μM, mean ± S.D.; read-out: % inhibition at 1 μM, PDGFRβ (h)
T9 construct: purchased Millipore UK Ltd., Dundee, UK (now Eurofins Scientific); KinaseProfiler / IC50 Profiler service
Protocol: as §1

HUVECs [1] = assay: VEGF-induced tube formation assay; assay type: cell-based, human; conditions: VEGF 50 ng/mL, compound 1 μg/mL
Protocol: For analyzing of the antagonistic response to VEGF, tube formation, scratch wound migration, and cell proliferation assays were performed after the exposure of HUVECs to 50 ng/mL VEGF-A (R&D Systems, Minneapolis, MN), which induced a significant angiogenic response. For the cell proliferation assays, cells were incubated overnight in endothelial basal media (EBM; Lonza, Walkersville, MD, USA) containing 0.5% FBS or supplemented with VEGF-A and/or VEGF inhibitors. The cells were washed with PBS and counted in 4 random microscope fields. The tube formation assay was performed by seeding cells on Matrigel-coated plates (BD Bioscience, Bedford, MA, USA) and incubating in EBM containing 0.5% FBS or supplemented with VEGF-A and/or VEGF inhibitors. After overnight incubation, tubule networks were quantified by measuring the tubule length in 4 random microscope fields. For the analysis of scratch wound migration, confluent cell monolayers grown on 6-well plates were scratched using a micropipette tip. […] Cell migration was observed by optical microscopy and quantified by measuring the number of cells that had migrated from the wound edges.
In (A) and (B), the number of cells was expressed as the fold change with respect to the number of cells seeded at day 0. […]

HUVECs [2] = assay: HUVEC viability assay (cytotoxicity); assay type: cell-based, human; conditions: 24 hours
Protocol: HCC827 cells were purchased from the American Type Culture Collection (ATCC, Manassas, VA, USA). Cells were grown in RPMI 1640 (Welgene Inc., Daegu, Republic of Korea) supplemented with 10% fetal bovine serum (FBS) (Welgene Inc.) and 1% penicillin-streptomycin (Gibco®, Life Technologies, Carlsbad, CA, USA) in a humidified 5% CO2 atmosphere at 37°C. Human umbilical vein endothelial cells (HUVECs, ScienCell Research Laboratories, Carlsbad, CA, USA) were cultured in endothelial growth medium-2 (EGM-2; Lonza, Walkersville, MD, USA) from passages 3 to 6.
For the HUVEC viability assay, HUVECs were treated with phosphate-buffered saline (PBS) or the indicated concentrations of VEGF inhibitors in EGM-2 medium for 24 hours. After the cells were washed with PBS, they were counted using an inverted light microscope (Nikon Eclipse Ti-U; Nikon Corp., Tokyo, Japan) in 5 random fields from each well.

T9 sequence (P09619 33-1106): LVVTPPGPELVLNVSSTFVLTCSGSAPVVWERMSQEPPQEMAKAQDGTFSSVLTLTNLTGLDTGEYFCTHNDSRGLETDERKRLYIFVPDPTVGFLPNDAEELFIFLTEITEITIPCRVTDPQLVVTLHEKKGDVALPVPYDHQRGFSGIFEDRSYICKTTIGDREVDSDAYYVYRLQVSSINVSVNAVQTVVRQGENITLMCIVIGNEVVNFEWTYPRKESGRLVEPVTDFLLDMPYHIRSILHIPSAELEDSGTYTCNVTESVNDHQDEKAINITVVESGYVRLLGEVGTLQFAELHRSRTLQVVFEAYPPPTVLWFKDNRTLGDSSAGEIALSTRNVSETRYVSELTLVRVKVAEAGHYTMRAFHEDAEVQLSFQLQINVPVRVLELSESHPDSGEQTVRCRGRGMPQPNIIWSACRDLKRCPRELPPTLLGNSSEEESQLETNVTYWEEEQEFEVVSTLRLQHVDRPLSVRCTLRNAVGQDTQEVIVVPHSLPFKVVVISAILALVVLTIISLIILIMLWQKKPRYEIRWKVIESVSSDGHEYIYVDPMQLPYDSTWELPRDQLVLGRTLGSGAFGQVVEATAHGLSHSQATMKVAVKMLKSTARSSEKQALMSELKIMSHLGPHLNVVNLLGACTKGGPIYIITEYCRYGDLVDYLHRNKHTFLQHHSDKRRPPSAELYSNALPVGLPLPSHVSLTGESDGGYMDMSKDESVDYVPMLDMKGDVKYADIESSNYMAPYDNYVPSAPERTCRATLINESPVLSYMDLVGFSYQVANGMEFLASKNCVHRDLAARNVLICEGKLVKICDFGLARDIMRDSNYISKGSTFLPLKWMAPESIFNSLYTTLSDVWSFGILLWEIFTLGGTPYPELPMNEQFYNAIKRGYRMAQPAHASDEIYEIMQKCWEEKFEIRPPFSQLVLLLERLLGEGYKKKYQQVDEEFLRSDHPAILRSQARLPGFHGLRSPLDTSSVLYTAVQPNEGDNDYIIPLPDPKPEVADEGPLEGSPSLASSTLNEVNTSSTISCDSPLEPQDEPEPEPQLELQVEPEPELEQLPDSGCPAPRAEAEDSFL
T7 sequence (P11362 22-822): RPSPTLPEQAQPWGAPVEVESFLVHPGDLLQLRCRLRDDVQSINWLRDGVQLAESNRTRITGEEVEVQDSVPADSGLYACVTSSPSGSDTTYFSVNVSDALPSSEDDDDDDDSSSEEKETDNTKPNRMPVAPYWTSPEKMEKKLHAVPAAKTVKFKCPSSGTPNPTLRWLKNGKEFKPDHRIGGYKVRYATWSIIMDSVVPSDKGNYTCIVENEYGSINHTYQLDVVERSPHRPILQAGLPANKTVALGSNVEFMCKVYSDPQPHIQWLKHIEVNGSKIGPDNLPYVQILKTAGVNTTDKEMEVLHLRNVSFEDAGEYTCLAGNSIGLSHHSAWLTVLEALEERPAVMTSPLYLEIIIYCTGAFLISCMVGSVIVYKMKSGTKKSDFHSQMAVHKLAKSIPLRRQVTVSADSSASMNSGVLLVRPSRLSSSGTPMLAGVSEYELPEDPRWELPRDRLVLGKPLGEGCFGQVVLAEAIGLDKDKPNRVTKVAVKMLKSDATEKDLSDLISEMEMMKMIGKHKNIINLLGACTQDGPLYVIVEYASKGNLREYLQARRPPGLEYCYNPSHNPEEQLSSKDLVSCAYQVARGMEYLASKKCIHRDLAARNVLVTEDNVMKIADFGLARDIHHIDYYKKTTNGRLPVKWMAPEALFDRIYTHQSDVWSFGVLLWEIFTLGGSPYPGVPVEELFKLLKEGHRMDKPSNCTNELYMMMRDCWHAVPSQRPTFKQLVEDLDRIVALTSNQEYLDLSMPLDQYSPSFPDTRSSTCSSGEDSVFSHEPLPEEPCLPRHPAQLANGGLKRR
T2 sequence (P22607 23-806): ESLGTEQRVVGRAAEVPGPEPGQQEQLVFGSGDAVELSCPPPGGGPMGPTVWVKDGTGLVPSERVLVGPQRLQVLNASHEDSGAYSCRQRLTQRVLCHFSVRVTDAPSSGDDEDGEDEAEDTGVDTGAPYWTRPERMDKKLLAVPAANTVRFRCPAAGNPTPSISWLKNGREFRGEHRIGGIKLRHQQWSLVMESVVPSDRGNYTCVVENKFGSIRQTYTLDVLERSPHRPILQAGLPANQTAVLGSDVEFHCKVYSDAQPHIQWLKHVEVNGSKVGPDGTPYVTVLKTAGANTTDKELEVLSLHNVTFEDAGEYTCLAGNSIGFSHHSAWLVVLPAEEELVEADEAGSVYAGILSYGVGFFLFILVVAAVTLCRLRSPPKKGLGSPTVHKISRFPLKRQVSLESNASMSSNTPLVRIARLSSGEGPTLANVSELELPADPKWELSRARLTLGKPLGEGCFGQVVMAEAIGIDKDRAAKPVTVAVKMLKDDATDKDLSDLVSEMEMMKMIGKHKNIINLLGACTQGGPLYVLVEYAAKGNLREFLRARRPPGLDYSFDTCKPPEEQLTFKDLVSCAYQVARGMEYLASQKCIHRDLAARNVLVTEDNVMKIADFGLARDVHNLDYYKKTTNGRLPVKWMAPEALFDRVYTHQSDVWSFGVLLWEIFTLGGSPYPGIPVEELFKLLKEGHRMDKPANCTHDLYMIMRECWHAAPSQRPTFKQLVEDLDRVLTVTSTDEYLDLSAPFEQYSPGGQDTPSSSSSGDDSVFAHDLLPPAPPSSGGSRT
T1 sequence (P35968 20-1356): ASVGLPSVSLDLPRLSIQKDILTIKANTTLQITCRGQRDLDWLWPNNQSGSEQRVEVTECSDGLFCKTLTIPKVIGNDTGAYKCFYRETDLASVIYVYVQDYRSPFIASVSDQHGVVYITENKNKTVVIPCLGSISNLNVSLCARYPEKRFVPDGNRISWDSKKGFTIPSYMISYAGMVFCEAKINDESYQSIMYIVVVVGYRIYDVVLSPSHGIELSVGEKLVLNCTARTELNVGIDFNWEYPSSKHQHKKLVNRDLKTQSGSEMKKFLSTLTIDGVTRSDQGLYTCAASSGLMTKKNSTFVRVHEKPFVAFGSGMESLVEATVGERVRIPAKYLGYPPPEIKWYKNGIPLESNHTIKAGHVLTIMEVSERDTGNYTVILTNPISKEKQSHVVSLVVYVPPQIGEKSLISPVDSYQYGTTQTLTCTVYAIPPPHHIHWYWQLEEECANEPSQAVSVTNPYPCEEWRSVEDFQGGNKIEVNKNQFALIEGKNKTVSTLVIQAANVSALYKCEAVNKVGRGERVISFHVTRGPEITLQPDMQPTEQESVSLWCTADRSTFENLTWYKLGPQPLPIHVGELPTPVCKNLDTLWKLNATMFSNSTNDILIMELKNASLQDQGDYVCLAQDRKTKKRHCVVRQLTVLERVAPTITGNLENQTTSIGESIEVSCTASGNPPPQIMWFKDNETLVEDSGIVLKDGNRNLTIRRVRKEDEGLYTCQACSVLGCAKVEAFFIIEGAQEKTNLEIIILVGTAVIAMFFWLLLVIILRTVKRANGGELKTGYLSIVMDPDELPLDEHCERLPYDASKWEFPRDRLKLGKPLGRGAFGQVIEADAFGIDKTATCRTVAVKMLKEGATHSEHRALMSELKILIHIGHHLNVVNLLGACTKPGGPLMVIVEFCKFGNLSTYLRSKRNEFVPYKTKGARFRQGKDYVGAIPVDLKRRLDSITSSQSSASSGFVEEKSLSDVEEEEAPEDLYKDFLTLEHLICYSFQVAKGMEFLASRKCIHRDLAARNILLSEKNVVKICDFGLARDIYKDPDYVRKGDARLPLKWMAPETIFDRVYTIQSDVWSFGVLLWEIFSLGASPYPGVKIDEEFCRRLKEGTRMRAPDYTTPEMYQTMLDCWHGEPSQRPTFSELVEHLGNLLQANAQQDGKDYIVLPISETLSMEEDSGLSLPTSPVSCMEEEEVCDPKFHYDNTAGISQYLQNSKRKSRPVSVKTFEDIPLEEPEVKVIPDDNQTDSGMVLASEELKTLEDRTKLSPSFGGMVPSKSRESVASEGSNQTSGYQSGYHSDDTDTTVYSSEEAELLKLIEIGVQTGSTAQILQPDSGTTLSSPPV
T8 sequence (P10721 26-976): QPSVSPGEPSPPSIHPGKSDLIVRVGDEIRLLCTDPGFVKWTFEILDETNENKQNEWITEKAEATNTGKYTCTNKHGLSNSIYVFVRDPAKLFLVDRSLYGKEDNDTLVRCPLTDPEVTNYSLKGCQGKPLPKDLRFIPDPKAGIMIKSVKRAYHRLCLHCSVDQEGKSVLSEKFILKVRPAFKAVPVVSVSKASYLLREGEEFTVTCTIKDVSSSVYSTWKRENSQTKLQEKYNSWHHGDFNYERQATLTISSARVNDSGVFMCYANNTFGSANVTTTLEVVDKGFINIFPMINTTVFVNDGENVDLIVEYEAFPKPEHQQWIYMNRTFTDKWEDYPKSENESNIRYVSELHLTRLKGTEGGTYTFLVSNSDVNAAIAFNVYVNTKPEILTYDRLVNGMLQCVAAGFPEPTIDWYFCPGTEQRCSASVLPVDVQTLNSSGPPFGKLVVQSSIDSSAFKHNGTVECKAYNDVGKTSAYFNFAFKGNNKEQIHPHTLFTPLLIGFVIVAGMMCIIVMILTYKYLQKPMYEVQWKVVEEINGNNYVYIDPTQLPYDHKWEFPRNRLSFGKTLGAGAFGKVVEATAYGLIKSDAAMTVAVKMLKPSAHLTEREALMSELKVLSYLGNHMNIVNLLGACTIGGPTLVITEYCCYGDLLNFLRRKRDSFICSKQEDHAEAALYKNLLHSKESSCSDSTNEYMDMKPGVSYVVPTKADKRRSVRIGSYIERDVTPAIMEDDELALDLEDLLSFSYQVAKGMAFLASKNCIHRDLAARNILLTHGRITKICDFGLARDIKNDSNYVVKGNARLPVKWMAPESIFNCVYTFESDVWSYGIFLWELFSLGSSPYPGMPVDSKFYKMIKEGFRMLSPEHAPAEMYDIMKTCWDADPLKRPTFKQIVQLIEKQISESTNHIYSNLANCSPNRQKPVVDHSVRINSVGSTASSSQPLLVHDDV

Row | Structure (SMILES) | inhibition at 1 µM (EGFR) [%] | IC50 (EGFR) [nM] | IC50 (VEGFR-2) [nM] | also measured
1 | Cc1ccc(Nc2nccc(N(C)c3ccc4[nH]cc(C)c4c3)n2)cc1S(N)(=O)=O [MKP102] | 93 ± 2 | 55 |  | IC50 (HCC827 cells): 197 nM
2 | Cc1cc2cc(N(C)c3ccnc(Nc4ccc(C)c(S(N)(=O)=O)c4)n3)ccc2[nH]1 [MKP103] | 42 ± 4 |  |  | IC50 (HCC827 cells): 1630 nM
3 | Cc1ccc(Nc2nccc(N(C)c3ccc4c(ccn4C)c3)n2)cc1S(N)(=O)=O [MKP104] | 20 ± 4 |  |  | IC50 (HCC827 cells): 2680 nM
4 | Cc1ccc(Nc2nccc(N(C)c3ccc4cc[nH]c4c3)n2)cc1S(N)(=O)=O [MKP105] | 47 ± 2 |  |  | IC50 (HCC827 cells): 1460 nM
5 | c1cc(Nc2ccc3[nH]ccc3c2)nc(Nc2ccc(OCCN3CCOCC3)cc2)n1 [MKP106] |  | 210 | 20 | 
6 | c1cc(Nc2ccc3[nH]ccc3c2)nc(Nc2ccc(OCCCCN3CCOCC3)cc2)n1 [MKP107] |  | 178 | 130 | 
7 | CN(c1ccc2[nH]ccc2c1)c1ccnc(Nc2ccc(OCCCCN3CCOCC3)cc2)n1 [MKP108] |  | 200 | 26 | 
8 | c1cc(Nc2ccc3[nH]ccc3c2)nc(Nc2ccc(N3CCOCC3)cc2)n1 [MKP109] |  | 240 | 50 | 
9 | c1cc(Nc2nccc(Nc3ccc4[nH]ccc4c3)n2)cc(N2CCOCC2)c1 [MKP110] |  | 180 | 30 | 
10 | Cn1ccc2cc(Nc3ccnc(Nc4ccc(N5CCOCC5)cc4)n3)ccc21 [MKP111] |  | 2240 | 1570 | 
11 | CN(c1ccc2c(ccn2C)c1)c1ccnc(Nc2ccc(N3CCOCC3)cc2)n1 [MKP112] |  | 10100 | 360 | 
12 | Fc1cc(Nc2nccc(Nc3ccc4[nH]ccc4c3)n2)ccc1N1CCOCC1 [MKP113] |  | 1630 | 30 | 
13 | Fc1cc(Nc2nccc(Nc3ccc4[nH]ccc4c3)n2)cc(N2CCOCC2)c1 [MKP114] |  | 610 | 41 | 
14 | COc1ccc(Nc2nccc(Nc3ccc4[nH]ccc4c3)n2)cc1N1CCOCC1 [MKP115] |  | 56 | 10 | 
15 | COc1cc(Nc2nccc(Nc3ccc4[nH]ccc4c3)n2)cc(N2CCOCC2)c1 [MKP116] |  | 41 | 20 | 
16 | COc1cc(Nc2nccc(N(C)c3ccc4[nH]ccc4c3)n2)cc(N2CCOCC2)c1 [MKP117] |  | 33 | 17 | 
17 | c1nc(Nc2ccc(N3CCOCC3)cc2)cc(Nc2ccc3[nH]ccc3c2)n1 [MKP118] |  | 7 | 1200 | 
18 | CN(c1ccc2[nH]ccc2c1)c1cc(Nc2ccc(N3CCOCC3)cc2)ncn1 [MKP119] |  | 35 | > 3000 | 
19 | c1nc(Nc2ccc(N3CCOCC3)cc2)cc(Oc2ccc3[nH]ccc3c2)n1 [MKP120] |  | 10 | 32 | 
20 | COc1ccc(Nc2cc(Oc3ccc4[nH]ccc4c3)ncn2)cc1N1CCOCC1 [MKP121] | 94 ± 2 | 31 | 30 | inhibition at 1 µM (FGFR3): 13 ± 4%; inhibition at 1 µM (EGFR (L858R)): 98%; inhibition at 1 µM (VEGFR-3): 98%; inhibition at 1 µM (PDGFRα): 37 ± 1%; inhibition at 1 µM (VEGFR-2): 96%; inhibition at 1 µM (VEGFR-1): 99 ± 2%; inhibition at 1 µM (FGFR1): 29 ± 5%; inhibition at 1 µM (cKit): 70 ± 3%; inhibition at 1 µM (PDGFRβ): 48%
21 | Cc1ccc(Nc2nccc(Oc3ccc4[nH]ccc4c3)n2)cc1S(N)(=O)=O [MKP122] | 35 ± 2 | 2040 | 20 | inhibition at 1 µM (FGFR3): 65 ± 4%; inhibition at 1 µM (EGFR (L858R)): 66%; inhibition at 1 µM (VEGFR-3): 100%; inhibition at 1 µM (PDGFRα): 87 ± 1%; inhibition at 1 µM (VEGFR-2): 96%; inhibition at 1 µM (VEGFR-1): 100%; inhibition at 1 µM (FGFR1): 83%; inhibition at 1 µM (cKit): 99 ± 1%; inhibition at 1 µM (PDGFRβ): 92%
22 | Cc1ccc(Nc2cc(Oc3ccc4[nH]ccc4c3)ncn2)cc1S(N)(=O)=O [MKP123] | 100 | 18 | 45 | inhibition at 1 µM (FGFR3): 21 ± 2%; inhibition at 1 µM (EGFR (L858R)): 99 ± 1%; inhibition at 1 µM (VEGFR-3): 100%; inhibition at 1 µM (PDGFRα): 30 ± 3%; inhibition at 1 µM (VEGFR-2): 97%; inhibition at 1 µM (VEGFR-1): 99 ± 1%; inhibition at 1 µM (FGFR1): 20 ± 6%; inhibition at 1 µM (cKit): 53 ± 9%; inhibition at 1 µM (PDGFRβ): 44 ± 3%
23 | Cc1ccc(Nc2nccc(N(C)c3ccc4c(C)n(C)nc4c3)n2)cc1S(N)(=O)=O [Pazopanib, 5-[[4-[(2,3-dimethyl-2H-indazol-6-yl)methylamino]-2-pyrimidinyl]amino]-2-methyl-benzenesulfonamide, reference compound] |  |  |  | Effect on VEGF-induced increase in tube formation (HUVECs [1]): significantly inhibited; EGFR inhibition (in words) (EGFR): did not inhibit EGFR; also recorded: no inhibitory effect against EGFR; Cytotoxicity in HUVECs (HUVECs [2]; 1 μg/mL): No cytotoxicity was observed; Cytotoxicity in HUVECs (HUVECs [2]; 5 and 10 μg/mL): significant endothelial cytotoxicity
